In article PMC12582325 (Proceedings of the National Academy of Sciences of the …, 2025):
“And” between values parts separate entries of the source, which are not always exact repeats. Equal values may be shown once. “Also recorded” adds a separate entry of the source. Read-outs that look alike come from different tables or passages of the source. Where a SMILES comes first, the peptide text is derived from it.

Experiments:
Bc.Ste2 [1] = type: cell-based, Botrytis cinerea; settings: YPL1 library cocultured with Bc.Ste2 strain GEN89, 20 h, 2 d diploid enrichment, NextSeq 500
Fg.Ste2 [2] = type: cell-based, Fusarium graminearum
Bc.Ste2 [3] = type: cell-based, Botrytis cinerea
[4] = tested on: empty (strain lacking a GPCR); type: cell-based, Saccharomyces cerevisiae; settings: Fig. 1D mating matrix; pheromone secreted by MATa strain, MATα strain lacking a GPCR (empty); deep well plate, 20 h coculture
Bb.Ste2 [5] = type: cell-based, Beauveria bassiana
[6] = tested on: no_GPCR (negative control lacking a GPCR); type: cell-based, Saccharomyces cerevisiae; settings: for barcode qPCR of diploids, no_GPCR x pheromone strain: consortium, individual replicates (n=3), listed as Fo.Pheromone
[7] = tested on: F. oxysporum microconidia; assay: Germination of F. oxysporum microconidia; type: cell-based, Fusarium oxysporum f. sp. lycopersici 4287; set-up: Germination of F. oxysporum microconidia (data of Sup.Fig.10): unit not given here; settings: for Germination of F. oxysporum microconidia (data of Sup.Fig.10): 400 μM pheromone, 13 h, at least 300 spores counted
Description: For F. oxysporum microconidia production, the strain was grown for 3 to 4 d in liquid potato dextrose broth (PDB) at 28 °C and 170 rpm. Germination media ([10]) was used for assessing the spore germination. RE was prepared by removing 2-wk-old tomato plants from vermiculite and washing the roots to remove any adhering substrates ([11]).
Supplementary Figure 10. Germination of F. oxysporum microconidia after 13 h of incubation in Germination Media at a cell density of […] microconidia/mL. The assay was performed with 400 μM of pheromone. All points represent the average of three biological replicates in which at least 300 spores were counted. Statistical significance was determined through one-way analysis of variance (ANOVA) with Dunnett’s multiple comparisons (✱p ≤ 0.05).

Mo Ste2 GPCR = type: cell-based, Magnaporthe oryzae; settings: Fig. 1D mating matrix; pheromone secreted by MATa strain, GPCR in MATα strain; deep well plate, 20 h coculture; three technical plating replicates
F. oxysporum germ tubes = settings: gradient of 400 μM pheromone against the solvent (50% methanol); 13 h; water-agar; three biological replicates; Fig. 5A
Description: For the B. bassiana and F. oxysporum chemotropism assay and plant infection assays the pheromones were dissolved in 50% (v/v) MeOH to reach a concentration of 4,000 μM.
Fungal chemotropism was conducted as previously described ([11]). For each compound or combination of compounds tested, 300 hyphal tips were scored. All experiments were performed in three biological replicates.

Nc Ste2 GPCR = type: cell-based, Neurospora crassa
Fg.Ste2 [8] = type: cell-based, Fusarium graminearum; settings: YPL1 library cocultured with Fg.Ste2 strain GEN87, 20 h, 2 d diploid enrichment, NextSeq 500
Bb.Ste2 [9] = type: cell-based, Beauveria bassiana; settings: for Diploid frequency (%): 20 h coculture; for diploid frequency (%) / average (diploid colonies): GPCR strain GEN47 HIS; for average (diploid colonies): dilution 500, mean of Rep1-3
Fg.Ste2 [10] = type: cell-based, Fusarium graminearum; settings: for Diploid frequency (%): 20 h coculture; for diploid frequency (%) / average (diploid colonies): GPCR strain GEN37 HIS; for average (diploid colonies): dilution 500, mean of Rep1-3
B. bassiana = type: cell-based, Beauveria bassiana
Fo.Ste2 = type: cell-based, Fusarium oxysporum
Sc Ste2 = target: T1, Sc Ste2 (Saccharomyces cerevisiae, UniProt D6VTK4); type: cell-based
T1 construct: The native Sc system and an empty construct were added as positive and negative controls; endogenous in cells; host or cells: Saccharomyces cerevisiae wild-type control strains GEN18 (MATa) and GEN27 (MATα)
T1 sequence (D6VTK4 1-431): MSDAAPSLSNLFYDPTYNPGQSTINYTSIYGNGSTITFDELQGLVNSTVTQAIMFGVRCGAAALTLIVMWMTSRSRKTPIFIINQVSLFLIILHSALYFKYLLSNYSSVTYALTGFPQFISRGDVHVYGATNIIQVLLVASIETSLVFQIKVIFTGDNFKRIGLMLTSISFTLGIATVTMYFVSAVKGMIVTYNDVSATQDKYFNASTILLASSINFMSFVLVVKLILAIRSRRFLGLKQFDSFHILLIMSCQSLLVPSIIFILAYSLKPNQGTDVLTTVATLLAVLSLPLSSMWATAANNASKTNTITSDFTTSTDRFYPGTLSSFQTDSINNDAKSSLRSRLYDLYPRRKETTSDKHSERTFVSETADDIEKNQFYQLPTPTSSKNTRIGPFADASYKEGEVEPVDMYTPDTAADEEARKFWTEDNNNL

[11] = Fig. 1D mating matrix, pheromone secreted by MATa strain, GPCR in MATα strain, deep well plate, three technical plating replicates
[12] = Fig. 1F validation in culture tubes, secreted pheromone, three biological and three technical replicates

C[C@@H](O)[C@H](NC(=O)[C@H](CS)NC(=O)[C@@H](N)Cc1c[nH]c2ccccc12)C(=O)N[C@@H](Cc1c[nH]c2ccccc12)C(=O)N[C@@H](CCCNC(=N)N)C(=O)NCC(=O)N[C@@H](CCC(N)=O)C(=O)N1CCC[C@H]1C(=O)N[C@@H](CS)C(=O)N[C@@H](Cc1c[nH]c2ccccc12)C(=O)O [Fo] (H-WCTWRGQPCW-OH; N-terminus assumed)
Enrichment after mating, reads per million minus library before coculture (Bc.Ste2 [1]): > 340,000 RPM | Fold change yEGFP (Fg.Ste2 [2]; Fg.Ste2 biosensor CPK366, 10 μM synthetic alpha pheromone, normalized to yEGFP background (receptor without pheromone), four biological replicates, Fig. 1E): 187 | Activation of Fg.Ste2 biosensor, in words (Fg.Ste2 [2]; chemically synthesized pheromone): higher EC50 values | Effect on activation of Bc.Ste2 by Bc pheromone, in words (Bc.Ste2 [3]; 0.0005 μM Bc pheromone in combination with 10 μM peptide, four biological replicates, Fig. 2G): do not differ significantly from Bc alone; also recorded: no such effect | Bc.Ste2 + pheromones, biosensor response, group mean (Bc.Ste2 [3]; Bc + the named peptide, Bc alone mean 134.8, mean of n = 4): 104.9 | Diploid frequency (%) [4]: 0.1% | Activation of Bb.Ste2 biosensor, in words (Bb.Ste2 [5]): higher EC50 values | EC50 fold higher than that of the Bb pheromone (Bb.Ste2 [5]): 3,910 fold | Fold change yEGFP (Bb.Ste2 [5]): 178 | Hillslope (Bb.Ste2 [5]): 1.951 | half-maximal effective concentration (EC50) (Bb.Ste2 [5]): 958 nM | logEC50 (Bb.Ste2 [5]): -6.019 | barcode qPCR of diploids, no_GPCR x pheromone strain ([6]; SC-AS/Urea): 0 and 0.004 and 0.005 | barcode qPCR of diploids, no_GPCR x pheromone strain ([6]; SC): 0 (2×) and 0.007 | diploid barcode qPCR signal relative to control (2^-dCt) ([6]; section A4, GPCR strain not given, mean of Bio1-3): 0.036 | diploid barcode qPCR signal relative to control (2^-dCt) ([6]; section A4, column EMPTY, replicate Bio1): 0.014 | diploid barcode qPCR signal relative to control (2^-dCt) ([6]; section A4, column EMPTY, replicate Bio2): 0.039 | diploid barcode qPCR signal relative to control (2^-dCt) ([6]; section A4, column EMPTY, replicate Bio3): 0.054 | diploid barcode qPCR signal relative to control (2^-dCt) ([6]; section Cm, GPCR strain not given, mean of Bio1-3): 0.002 | diploid barcode qPCR signal relative to control (2^-dCt) ([6]; section Cm, column EMPTY, replicate Bio1): 0.005 | diploid barcode qPCR signal relative to control (2^-dCt) ([6]; section Cm, column EMPTY, replicate Bio2): 0 | diploid barcode qPCR signal relative to control (2^-dCt) ([6]; section Cm, column EMPTY, replicate Bio3): 0 | diploid barcode qPCR signal relative to control (2^-dCt) ([6]; section SC, GPCR strain not given, mean of Bio1-3): 0.0024 | diploid barcode qPCR signal relative to control (2^-dCt) ([6]; section SC, column EMPTY, replicate Bio1): 0 | diploid barcode qPCR signal relative to control (2^-dCt) ([6]; section SC, column EMPTY, replicate Bio2): 0 | diploid barcode qPCR signal relative to control (2^-dCt) ([6]; section SC, column EMPTY, replicate Bio3): 0.007 | diploid barcode qPCR signal relative to control (2^-dCt) ([6]; section Scramble, GPCR strain not given, mean of Bio1-3): 0.0071 | diploid barcode qPCR signal relative to control (2^-dCt) ([6]; section Scramble, column EMPTY, replicate Bio1): 0 | diploid barcode qPCR signal relative to control (2^-dCt) ([6]; section Scramble, column EMPTY, replicate Bio2): 0.015 | diploid barcode qPCR signal relative to control (2^-dCt) ([6]; section Scramble, column EMPTY, replicate Bio3): 0.006 | Germination of F. oxysporum microconidia (data of Sup.Fig.10) ([7]; biological replicate 1 (first line)): 23,4 | Germination of F. oxysporum microconidia (data of Sup.Fig.10) ([7]; biological replicate 2 (second line)): 23,3 | Germination of F. oxysporum microconidia (data of Sup.Fig.10) ([7]; biological replicate 3 (third line)): 13,3 | Mean Diff, Solvent vs. peptide ([7]; Sup.Fig.10, Dunnett's multiple comparisons test, n = 3): 23,77 | Mean 2 (peptide), germination ([7]; Sup.Fig.10, Solvent control mean 43,77, mean of n = 3): 20,00 | Effect on F. oxysporum microconidia germination, in words ([7]; exogenous addition of 400 μM peptide, 13 h in Germination Media, 3.2 x 106 microconidia/mL): significant reduction | Diploid frequency (%) (Mo Ste2 GPCR): 0.0% | Chemotropic response in F. oxysporum germ tubes (F. oxysporum germ tubes): significant chemotropic response | Diploid frequency (%) (Nc Ste2 GPCR): 0.0% | Enrichment after mating, reads per million minus library before coculture (Fg.Ste2 [8]): > 340,000 RPM | Diploid frequency (%) (Bb.Ste2 [9]; [11]): 0.7% | Diploid frequency (%) (Bb.Ste2 [9]; [12]): 4.9% | diploid frequency (%) (Bb.Ste2 [9]; co-culture replicate 1): 4.61% | average (diploid colonies) (Bb.Ste2 [9]; co-culture replicate 1): 22 | diploid frequency (%) (Bb.Ste2 [9]; co-culture replicate 2): 3.74% | average (diploid colonies) (Bb.Ste2 [9]; co-culture replicate 2): 17.67 | diploid frequency (%) (Bb.Ste2 [9]; co-culture replicate 3): 6.44% | average (diploid colonies) (Bb.Ste2 [9]; co-culture replicate 3): 31.33 | Diploid frequency (%) (Fg.Ste2 [10]; [11]): 0.5% | Diploid frequency (%) (Fg.Ste2 [10]; [12]): 8.8% | diploid frequency (%) (Fg.Ste2 [10]; co-culture replicate 1): 1.34% | average (diploid colonies) (Fg.Ste2 [10]; co-culture replicate 1): 5.67 | diploid frequency (%) (Fg.Ste2 [10]; co-culture replicate 2): 1.11% | average (diploid colonies) (Fg.Ste2 [10]; co-culture replicate 2): 4.67 | diploid frequency (%) (Fg.Ste2 [10]; co-culture replicate 3): 0.95% | average (diploid colonies) (Fg.Ste2 [10]; co-culture replicate 3): 4 | Chemotropism of spores, group mean (B. bassiana): 11.13 | chem. Index (B. bassiana): 14.29 and 11.03 and 8.06 | Chemotropic response in Bb germ tubes (B. bassiana; 20 hours): significant chemotropic response | Fold change yEGFP (Fo.Ste2): 236 | Hillslope (Fo.Ste2): 2.574 | logEC50 (Fo.Ste2): -7.534 | Sup.Fig.3B Fo.Ste2 biosensor response, group mean (Fo.Ste2; 0.5 μM): 1195000 | Diploid frequency (%) (Sc Ste2): 0.0%
